The record followed here is paper PMC12931196, “Vm–MSI: a Vancomycin–Antimicrobial Peptide Conjugate Combating Resistant Bacteria and Broadening the Antimicrobial Spectrum” (Advanced Science, 2025).

Where two headings read alike, the source gives them in different places. Ends that are not written are not given here.

For one data set, the system named is B. cereus CMCC63301. Put plainly: MIC, 2 fold broth microdilution. It is filed as cell-based. To be noted: MH broth, 37 °C, 18 h, OD600. The procedure: (§1) The 2 fold broth microdilution method was performed following previously established protocols.^[ [65], [66] ^] A total of 29 strains of human pathogenic microorganisms (11 Gram‐positive and 18 Gram‐negative) were included in the assay. Standard strains were maintained in our laboratory, and clinical isolates were obtained from the Fourth Affiliated Hospital of Soochow University. […] Gradient dilutions of the drugs (vancomycin, AMPs, and vancomycin‐AMP conjugates) were prepared in 96‐well plates, with 50 µL of each drug solution added per well. For the vancomycin and AMP mixture, 25 µL of vancomycin was combined with 25 µL of AMP at the corresponding monomer gradient concentration, resulting in a total volume of 50 µL. […] Following incubation, bacterial growth was assessed by measuring absorbance at 600 nm. The MIC was defined as the lowest concentration at which no bacterial growth was detected.

A further data set has as its system P. aeruginosa 52097. Put plainly: MIC, 2 fold broth microdilution. It is filed as cell-based. The note with it: MH broth, 37 °C, 18 h, OD600. Here is the method:
as §1
On the technique in general: In broth dilution the organism is exposed to a series of concentrations in liquid medium.

A further data set deals with P. aeruginosa 60357. Nature of the data set: MIC, 2 fold broth microdilution. The note with it: MH broth, 37 °C, 18 h, OD600. It is filed as cell-based. The procedure: as §1
The next data set deals with P. aeruginosa CMCC10104. Put plainly: MIC, 2 fold broth microdilution. To be noted: MH broth, 37 °C, 18 h, OD600. It is filed as cell-based. Here is the method:
as §1

Another data set concerns S. flexneri ATCC12022. Put plainly: MIC, 2 fold broth microdilution. It is filed as cell-based. The note with it: MH broth, 37 °C, 18 h, OD600. Here is the method: as §1
The subject of another data set is S. flexneri CMCC51571. Put plainly: MIC, 2 fold broth microdilution. The note with it: MH broth, 37 °C, 18 h, OD600. It is filed as cell-based. The procedure:
as §1

A further data set deals with S. typhimurium CICC21483. Put plainly: MIC, 2 fold broth microdilution. It is filed as cell-based. The note with it: MH broth, 37 °C, 18 h, OD600. Here is the method:
as §1

Data set [1] concerns V. parahemolyticus ATCC17802. Put plainly: MIC, 2 fold broth microdilution. It is filed as cell-based. The note with it: MH broth, 37 °C, 18 h, OD600. Here is the method:
as §1

Data set [2] relates to 29 bacterial strains (11 Gram‐positive, 18 Gram‐negative). Nature of the data set: GM of the MICs across the 29 bacterial strains. It is filed as cell-based. The note with it: MIC values exceeding 100 µg mL^−1 defaulted to 100 µg mL^−1. Here is the method:
as §1

The test system of data set [3] is S. aureus CMCC26003 biofilm. Put plainly: Biofilm inhibition, crystal violet. It is filed as cell-based. The note with it: 4 µM, 48 h, OD595. Here is the method: (§2) The mixture was incubated in a 96‐well plate for 48 h. Subsequent steps, including washing, fixation, staining, and OD measurement, were performed as described in the biofilm eradication assay.
The subject of data set [4] is E. coli ATCC25922 biofilm. It is filed as cell-based. The note with it: 4 µM, 48 h, crystal violet, OD595. Here is the method:
as §2

The subject of data set [5] is MDR P. aeruginosa 5 biofilm. It is filed as cell-based. To be noted: 4 µM, 48 h, crystal violet, OD595. Here is the method: as §2
The next data set has as its system VRSA 52 biofilm. It is filed as cell-based, S. aureus. The note with it: 4 µM, 48 h, crystal violet, OD595. Here is the method:
as §2

The subject of the next data set is human erythrocytes. Nature of the data set: Hemolytic activity assay. It is filed as cell-based. To be noted: 32 µM; human blood cells, 37 °C, 30 min, A540, 1% Triton X‐100 positive control.
For data set [6], the system named is E. coli ATCC25922. Nature of the data set: Live/dead bacteria staining (PI/SYTO9, CLSM). It is filed as cell-based. To be noted: 4 µM, 1 h.
Another data set deals with C. perfringens ATCC13124. To be noted: MH broth, 37 °C, 18 h, OD600.
The subject of a further data set is MDR A. baumannii 1. To be noted: MH broth, 37 °C, 18 h, OD600.
The test system of another data set is MDR K. pneumoniae 2. The note with it: MH broth, 37 °C, 18 h, OD600.
The test system of another data set is MDR K. pneumoniae 3. The note with it: MH broth, 37 °C, 18 h, OD600.
A further data set relates to MDR K. pneumoniae 4. The note with it: MH broth, 37 °C, 18 h, OD600.
For a further data set, the system named is VRSA 52 biofilms. To be noted: 8 µM, 4 h, SYTO9/PI CLSM.
Data set [7] concerns E. coli ATCC25922 biofilms. The note with it: 8 µM, 4 h, SYTO9/PI CLSM.
In data set [8] the test system is E. coli ATCC25922. Nature of the data set: Antimicrobial resistance development assay. It is filed as cell-based. To be noted: E. coli ATCC25922 cultured at sub‐MIC.
The next data set deals with S. aureus ATCC29213. The note with it: ATCC29213, 18 h.
Another data set deals with VRSA 11. The note with it: 11, 18 h.
Another data set relates to E. faecalis ATCC29212. The note with it: ATCC29212, 18 h.
The next data set deals with K. pneumoniae 9883. The note with it: 9883, 18 h.
A further data set concerns 13 bacterial strains. Nature of the data set: GM of MIC from tested bacterial strains (Table S2). It is filed as cell-based. The note with it: 13 strains of Table S2. The procedure:
as §1

For a further data set, the system named is S. aureus CMCC26003. To be noted: CMCC26003, 18 h.
The next data set deals with MRSA ATCC43300. The note with it: ATCC43300, 18 h.
In another data set the test system is S. aureus 15772. The note with it: 15772, 18 h.
In another data set the test system is S. aureus 15192. To be noted: 15192, 18 h.
The subject of another data set is VRSA 52. The note with it: VRSA 52; MH broth, 37 °C, 18 h, OD600.
The test system of data set [9] is E. coli ATCC25922. The note with it: ATCC25922, 18 h.
A further data set has as its system A. baumannii ATCC19606. The note with it: ATCC19606, 18 h.
A further data set has as its system P. aeruginosa ATCC27853. To be noted: ATCC27853, 18 h.
The next data set concerns S. typhimurium ATCC14028. To be noted: ATCC14028, 18 h.

Consider `CC[C@H](C)[C@H](NC(=O)CNC(=O)[C@@H](N)CSC1CC(=O)N(CC2CCC(C(=O)N(C)[C@H](CC(C)C)C(=O)N[C@H]3C(=O)N[C@@H](CC(N)=O)C(=O)N[C@H]4C(=O)N[C@H]5C(=O)N[C@H](C(=O)N[C@H](C(=O)O)c6cc(O)cc(O)c6-c6cc5ccc6O)[C@H](O)c5ccc(c(Cl)c5)Oc5cc4cc(c5O[C@@H]4O[C@H](CO)[C@@H](O)[C@H](O)[C@H]4O[C@H]4C[C@](C)(N)[C@H](O)[C@H](C)O4)Oc4ccc(cc4Cl)[C@H]3O)CC2)C1=O)C(=O)NCC(=O)N[C@@H](CCCCN)C(=O)N[C@@H](Cc1ccccc1)C(=O)N[C@@H](CC(C)C)C(=O)N[C@@H](CCCCN)C(=O)N[C@@H](CCCCN)C(=O)N[C@@H](C)C(=O)N[C@@H](CCCCN)C(=O)N[C@@H](CCCCN)C(=O)N[C@@H](Cc1ccccc1)C(=O)NCC(=O)N[C@@H](CCCCN)C(=O)N[C@@H](C)C(=O)N[C@@H](Cc1ccccc1)C(=O)N[C@H](C(=O)N[C@@H](CCCCN)C(=O)N[C@H](C(=O)N[C@@H](CC(C)C)C(=O)N[C@@H](CCCCN)C(=O)N[C@@H](CCCCN)C(N)=O)[C@@H](C)CC)C(C)C` (stereo partly shown) [Vm‐MSI], for which the MIC against B. cereus CMCC63301 was 2.21(9.38) µM; with P. aeruginosa 52097, 2.21(9.38) µM; against P. aeruginosa 60357, 2.21(9.38) µM; with P. aeruginosa CMCC10104, 4.42(18.75) µM; in the data set with S. flexneri ATCC12022 it was 1.10(4.69) µM; against S. flexneri CMCC51571, 2.21(9.38) µM. Moreover, the MIC against S. typhimurium CICC21483 was 4.42(18.75) µM; in [1], 8.84(37.5) µM; in the data set with E. faecalis 2 (E. faecalis 2, MH broth, 37 °C, 18 h, OD600), 4.42(18.75) µM; against C. perfringens ATCC13124, 2.21(9.38) µM; against E. coli CMCC44102 (E. coli CMCC44102, MH broth, 37 °C, 18 h, OD600), 2.21(9.38) µM; against MDR A. baumannii 1, 1.10(4.69) µM. The MIC against MDR K. pneumoniae 2 is 4.42(18.75) µM; in the data set with MDR K. pneumoniae 3, 2.21(9.38) µM; with MDR K. pneumoniae 4, 4.42(18.75) µM; against MDR P. aeruginosa 5 (MDR P. aeruginosa 5, MH broth, 37 °C, 18 h, OD600), 2.21(9.38) µM. Also, the “GM: Geometric mean of the MICs across the 29 bacterial strains” value in data set [2] is 2.60(11.03) µM. Also, the biofilm formation inhibited in [3] was determined as 80%; in data set [4], 60%; in data set [5], 50%; with VRSA 52 biofilm it was 60%. In the data set with human erythrocytes, this compound showed a hemolysis of 10%. The “bacteria killed (mortality)” value in the data set on E. coli ATCC25922 [6] is “over 80%”. Further, the “killing in the bottom layer of the biofilm” value in the data set on VRSA 52 biofilms is 50%. Also, the “killing in the middle layer of the biofilm” value with VRSA 52 biofilms amounted to 60%. In addition, the “killing in the surface layer of the biofilm (dead cells)” value in the data set with VRSA 52 biofilms is given as 95%. Also, the “killing at the bottom of the biofilm” value in data set [7] was “more than 75%”.
Take `O=C(O)c1cn(C2CC2)c2cc(N3CCNCC3)c(F)cc2c1=O` [ciprofloxacin]: the “change of MIC over 20 generations” value in the data set on E. coli ATCC25922 [8] was determined as 64 fold.
As to GIGKFLKKAKKFGKAFVKILKK-NH2 [MSI‐78], the MIC in the data set on B. cereus CMCC63301 is 7.57(18.75) µM; with P. aeruginosa 52097 it was 3.79(9.38) µM; in the data set with P. aeruginosa 60357, 3.79(9.38) µM; in the data set with P. aeruginosa CMCC10104, 7.57(18.75) µM; in the data set with S. flexneri ATCC12022 it was 3.79(9.38) µM; in the data set on S. flexneri CMCC51571, 3.79(9.38) µM. Moreover, the MIC is reported as 7.57(18.75) µM in the data set with S. typhimurium CICC21483; 7.57(18.75) µM in [1]; 15.14(37.5) µM in the data set on S. aureus ATCC29213; 15.14(37.5) µM in the data set with VRSA 11; 30.28(75) µM against E. faecalis ATCC29212; 15.14(37.5) µM in the data set with E. faecalis 2 (2, 18 h). The MIC against C. perfringens ATCC13124 is given as 7.57(18.75) µM; with E. coli CMCC44102 (CMCC44102, 18 h), 15.14(37.5) µM; against MDR A. baumannii 1, 3.79(9.38) µM; with K. pneumoniae 9883, 15.14(37.5) µM; in the data set on MDR K. pneumoniae 2, 7.57(18.75) µM; with MDR K. pneumoniae 3, 3.79(9.38) µM. Moreover, the MIC is 7.57(18.75) µM against MDR K. pneumoniae 4 and 1.89(4.69) µM in the data set on MDR P. aeruginosa 5 (MDR 5, 18 h). Further, the “GM: Geometric mean of the MICs across the 29 bacterial strains” value in data set [2] is recorded as 7.67(18.99) µM. Also, the “bacteria killed (mortality)” value with E. coli ATCC25922 [6] is 58%. In the data set with VRSA 52 biofilms, the “killing in the middle layer of the biofilm” value was 25%.
Take ILRWPWWPWRRK-NH2 [Omiganan]: the “GM: geometric mean of MIC from tested bacterial strains” value in the data set on 13 bacterial strains amounted to 36.00 µg/mL. In addition, the MIC with S. aureus CMCC26003 was 2.34(1.32) µg mL^−1; in the data set on S. aureus ATCC29213 it was 18.75(10.54) µg mL^−1; with MRSA ATCC43300 it was 37.5(21.08) µg mL^−1; in the data set on S. aureus 15772 it was 18.75(10.54) µg mL^−1; against S. aureus 15192, 18.75(10.54) µg mL^−1; with VRSA 52 it was 9.38(5.27) µg mL^−1. For the same compound, the MIC in the data set on E. faecalis ATCC29212 is recorded as 75(42.15) µg mL^−1; with E. coli ATCC25922 [9] it was 18.75(10.54) µg mL^−1; against A. baumannii ATCC19606 it was 75(42.15) µg mL^−1; against K. pneumoniae 9883, >100(56.21) µg mL^−1; against P. aeruginosa ATCC27853 it was 18.75(10.54) µg mL^−1; with S. typhimurium ATCC14028, 37.5(21.08) µg mL^−1.
